Experiment: Hygroscopicity: water content before and after 24 hours in a desiccator at 60° C. and humidity 100%
Type: physicochemical
Conditions: for Water content (%) after 24 hours: after 24 hours in a desiccator at a temperature of 60° C. and a humidity of 100%; for Water content (%) at the start: obtained crystals, before conditioning
Experimental: Aripiprazole anhydride crystals B have a low hygroscopicity; and, for example, maintain a water content of 0.4% or less, and further 0.1% or less, after 24 hours of conditioning in a desiccator set at a temperature of 60° C. and a humidity of 100%. Known methods for measuring water content can be used as long as they are commonly used for measuring the water content of crystals. For example, a method such as the Karl Fischer method can be used.
Fine particles of the crystals after heating treatment (drying) are the fine particles of anhydride crystals B of aripiprazole. These particles have the physicochemical properties (1) to (5) described above, and also have a low hygroscopicity; specifically, the water content thereof after 24 hours of conditioning in a desiccator adjusted to a temperature of 60° C. and a humidity of 100% is 0.4% or less, further 0.2% or less, and furthremore 0.1% or less.

## O=C1CCc2ccc(OCCCCN3CCN(c4cccc(Cl)c4Cl)CC3)cc2N1 [Aripiprazole anhydride crystals B, 7-{4-[4-(2,3-dichlorophenyl)-1-piperazinyl]butoxy}-3,4-dihydrocarbostyril]
  Water content (%) after 24 hours: ≤ 0.4%
Listed as anhydride crystals B of aripiprazole
  Water content (%) after 24 hours: ≤ 0.4%

## O=C1CCc2ccc(OCCCCN3CCN(c4cccc(Cl)c4Cl)CC3)cc2N1 [Example 1, 7-{4-[4-(2,3-dichlorophenyl)-1-piperazinyl]butoxy}-3,4-dihydrocarbostyril]
  Water content (%) after 24 hours: 0.10%
  Water content (%) at the start: 0.11%
Left to stand for 24 hours in a desiccator at 60° C. and a humidity of 100%
  hygroscopicity: < 4%

## O=C1CCc2ccc(OCCCCN3CCN(c4cccc(Cl)c4Cl)CC3)cc2N1 [Example 2, 7-{4-[4-(2,3-dichlorophenyl)-1-piperazinyl]butoxy}-3,4-dihydrocarbostyril]
  Water content (%) after 24 hours: ≤ 0.01%
  Water content (%) at the start: 0.01%

## O=C1CCc2ccc(OCCCCN3CCN(c4cccc(Cl)c4Cl)CC3)cc2N1 [Example 3, 7-{4-[4-(2,3-dichlorophenyl)-1-piperazinyl]butoxy}-3,4-dihydrocarbostyril]
  Water content (%) after 24 hours: 0.17%
  Water content (%) at the start: 0.08%

From US9278934B2, “Method for producing fine particles of aripiprazole anhydride crystals B” (OTSUKA PHARMACEUTICAL CO., LTD., priority 2011, dated 2016)
